In patent US5834284A, “N-acetylglucosaminyl transferase gene coding therefor and process for production thereof” (Suntory Limited, priority 1992, dated 1998):

How the values were obtained:
GnT-V expression product = target: T1, GnT-V expression product (Homo sapiens, UniProt Q09328); assay: Enzyme activity of cloned GnT-V cDNA expressed in COS-1 cells; type: biochemical; settings: supernatant of disrupted COS-1 cells
T1 sequence (Q09328 1-741): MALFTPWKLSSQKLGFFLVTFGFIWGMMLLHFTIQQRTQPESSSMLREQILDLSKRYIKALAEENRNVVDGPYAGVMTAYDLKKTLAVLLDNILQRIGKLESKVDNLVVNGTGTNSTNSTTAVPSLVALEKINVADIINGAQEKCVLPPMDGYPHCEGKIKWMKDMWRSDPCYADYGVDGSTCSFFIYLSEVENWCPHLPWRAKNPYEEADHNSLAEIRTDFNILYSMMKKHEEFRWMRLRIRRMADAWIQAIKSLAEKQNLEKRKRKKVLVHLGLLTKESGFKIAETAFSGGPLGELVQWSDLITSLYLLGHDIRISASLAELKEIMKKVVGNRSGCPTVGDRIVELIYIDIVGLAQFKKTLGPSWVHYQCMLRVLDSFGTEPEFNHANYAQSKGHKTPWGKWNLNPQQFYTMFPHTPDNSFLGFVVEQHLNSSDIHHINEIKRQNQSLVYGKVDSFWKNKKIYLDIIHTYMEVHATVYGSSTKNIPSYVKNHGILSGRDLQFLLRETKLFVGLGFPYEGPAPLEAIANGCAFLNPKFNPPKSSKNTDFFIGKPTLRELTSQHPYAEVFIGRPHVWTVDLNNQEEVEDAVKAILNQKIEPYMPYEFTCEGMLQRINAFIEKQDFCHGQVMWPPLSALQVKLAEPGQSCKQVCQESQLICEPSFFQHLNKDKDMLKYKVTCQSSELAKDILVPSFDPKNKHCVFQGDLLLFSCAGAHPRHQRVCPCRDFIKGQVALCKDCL
Method: The expression vector constructed in Example 8 was used to express the GnT-V cDNA fragment in animal cells and GnT-V activity of the expressed protein was tested.
Expression vector containing GnT-V cDNA fragment was transfected to COS-1 cells, animal cells for expression, by electroporation. Namely, about 5×10^6 CO.S-1 cells previously prepared were suspended in HEPES buffer (50 mM Hepes, 137 mM NaCl, 5 mM KCl, 0.7 mM NaHPO3, 6 mM dextrose, pH 7.05), 60 μg of the above-mentioned plasmid was added thereon, and 800 μl of the suspension was subjected to electroporation in an electroporator (Bio-Rad) at 250V, […]. Next, all the suspensions of COS-1 cells electroporated with GnT-V gene was plated in a petri dish having the diameter of 6 cm, and cultured at 37° C. in 5% CO2 for 48 hours. The cultured ceils were collected with a rubber-coated police man bar, and suspended in 50 μl of PBS buffer, and the cells were disrupted with a sonicator. Next, the disruptant was centrifuged to collect a supernatant, and 15 μl of the supernatant was used to assay enzyme activity.

[1] = target: T2, GnT-V (β1,6-N-acetylglucosaminyl transferase) (Homo sapiens, UniProt Q09328); assay: GnT-V enzyme activity assay with fluorescence-labeled sugar acceptors, product separated by HPLC; type: biochemical
T2 construct: 73/60 kDa
T2 sequence (Q09328 31-741): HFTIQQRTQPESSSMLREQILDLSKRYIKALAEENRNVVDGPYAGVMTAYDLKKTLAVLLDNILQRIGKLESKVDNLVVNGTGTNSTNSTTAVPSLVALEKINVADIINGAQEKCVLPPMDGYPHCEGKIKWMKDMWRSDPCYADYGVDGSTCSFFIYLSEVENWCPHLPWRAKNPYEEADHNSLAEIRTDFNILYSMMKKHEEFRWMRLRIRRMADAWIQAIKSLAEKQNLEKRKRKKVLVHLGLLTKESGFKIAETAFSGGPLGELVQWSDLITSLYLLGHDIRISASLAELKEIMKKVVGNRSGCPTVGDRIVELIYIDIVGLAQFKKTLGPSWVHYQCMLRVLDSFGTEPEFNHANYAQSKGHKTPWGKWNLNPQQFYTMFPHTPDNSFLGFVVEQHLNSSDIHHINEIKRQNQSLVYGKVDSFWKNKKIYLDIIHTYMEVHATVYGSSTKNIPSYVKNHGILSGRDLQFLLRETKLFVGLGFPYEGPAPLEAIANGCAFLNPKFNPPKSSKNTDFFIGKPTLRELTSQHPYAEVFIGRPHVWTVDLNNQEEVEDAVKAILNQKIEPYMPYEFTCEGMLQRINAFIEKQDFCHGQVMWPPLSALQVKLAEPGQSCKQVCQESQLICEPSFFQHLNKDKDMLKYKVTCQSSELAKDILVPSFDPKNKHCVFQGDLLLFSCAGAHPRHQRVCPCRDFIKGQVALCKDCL
Excerpt: An enzyme activity can be easily assayed by labeling an acceptor with a radioisotope or with fluorescent substance, adding the enzyme and separating the reaction product by high performance liquid chromatography (HPLC). More specifically, the method reported by Tanigichi et al. (Taniguchi, N., Nishikawa, A., Fujii, S., and Gu. J., Methods Enzymol. 179, 397-408 (1989); Nishikawa, H., Gu, J., Fujii, S., and Tanigichi, N., Biochem. Biophys. Acta, 1035, 313-318 (1990)) may be followed.
Namely, the enzyme activity of GnT-V can be assayed using GnGn-2-aminopyridine (GnGn-bi-PA) as an acceptor, and UDP-GluNAc (Sigma) as a donor. Activity is shown by an amount of transferred N-acetylglucosamine/hour/mg protein. Note, an amount of protein can be measured according to a reported method (Redinbaugh, M. G., and Turley, R. B., Anal. Biochem. 153, 267-271 (1986)) using a BCA kit (Pierce Chemical Company, Rockford, Ill.) and using bovine serum albumin as a standard.
Substrate specificity was determined using the following compound as sugar acceptors according to the above-mentioned enzyme activity measuring method. [drawing 1]
GnGnF--, GnGF--, GGnF--, Gn(Gn)GnF--, Gn(Gn)Gn--, GG--, GnGn--, MM-- and GnM-- were isolated from the bovine IgG treated with anhydrous hydrazine and then labeled with a fluorescence label according to Hase et al. method (Hase, S., Ibuki, T., and Ikehara, T., J. Biochem. 95, 197-203 (1984). The purified GnT-V was diluted with PBS buffer to a final concentration of 0.1 mg protein/ml, and then reacted with each fluorescence-labeled sugar acceptor. A result is shown in Table 2.

CC(=O)N[C@H]1[C@H](O[C@@H]([C@H](O)[C@H](CNc2ccccn2)NC(C)=O)[C@H](O)CO)O[C@H](CO)[C@@H](O[C@@H]2O[C@H](CO[C@H]3O[C@H](CO)[C@@H](O)[C@H](O)[C@@H]3O[C@@H]3O[C@H](CO)[C@@H](O)[C@H](O)[C@H]3NC(C)=O)[C@@H](O)[C@H](O[C@H]3O[C@H](CO)[C@@H](O)[C@H](O)[C@@H]3O[C@@H]3O[C@H](CO)[C@@H](O)[C@H](O)[C@H]3NC(C)=O)[C@@H]2O)[C@@H]1O [GnGn-bi-PA, GlcNAcβ1-2Manα1-3-(GlcNAcβ1-2Manα1-6)Manβ1-4GlcNAcβ1-4GlcNAc-2-aminopyridine]
conversion of substrate by expression product GnT-V (HPLC elution profile, FIG. 10) (GnT-V expression product): converts a substrate GnGn-bi-PA to a product GnGnGn-tri'-PA | Relative reaction rate ([1]; acceptor 70 μM, purified GnT-V 0.1 mg protein/ml, GnGn-bi-PA = 100): 100 | reactivity relative to GnGn-bi-PA acceptor taken as 100% ([1]; substrate specificity): 100%
